PubChem BioAssay AID1259408 (Genetic Toxicology Data Bank (GENE-TOX), 2018)
Active and inactive are the calls of the source. How the calls were made is not given here.

Test system: GENE-TOX genotoxicity assays, various organisms and cells
Assay: GENE-TOX mutagenicity studies
Settings: for call: Assay Type: In vivo carcinogenicity studies
[1] = Species/Cell Type: Nonhuman, Assay Code: CCG+L, Evaluation Type: Evaluation A (Pre-1980)
[2] = Species/Cell Type: Salmonella typhimurium (one or more of the five standard strains: TA98, TA100, TA1535, TA1537, and TA1538), Assay Type: Histidine reverse gene mutation, Ames assay, Assay Code: SAL+, Evaluation Type: Evaluation A (Pre-1980)
[3] = Species/Cell Type: Bacillus subtilis (H17 vs M45), Assay Type: Rec-assay, spot test, DNA effects (bacterial DNA repair), Assay Code: REW-, Evaluation Type: Evaluation A (Pre-1980)
[4] = Species/Cell Type: Escherichia coli WP2, Assay Type: Tryptophan reverse gene mutation, Assay Code: WP2+, Evaluation Type: Evaluation A (Pre-1980)
[5] = Species/Cell Type: Mammalian polychromatic erythrocytes, Assay Type: Micronucleus test, chromosome aberrations, Assay Code: MNT-, Evaluation Type: Evaluation B (Post-1980)
[6] = Species/Cell Type: Allium cepa, Assay Type: Chromosome aberrations, Assay Code: ALC-, Evaluation Type: Evaluation A (Pre-1980)
[7] = Species/Cell Type: Chinese hamster lung (V79) cells, Assay Type: Forward gene mutation at the HPRT or ouabain locus, Assay Code: V79-*, Activation: With metabolic activation, Evaluation Type: Evaluation A (Pre-1980)
[8] = Species/Cell Type: Salmonella typhimurium (one or more of the five standard strains: TA98, TA100, TA1535, TA1537, and TA1538), Assay Type: Histidine reverse gene mutation, Ames assay, Assay Code: SALT, Evaluation Type: Evaluation A (Pre-1980)
[9] = Species/Cell Type: Mammalian polychromatic erythrocytes, Assay Type: Micronucleus test, chromosome aberrations, Assay Code: MNTT, Evaluation Type: Evaluation B (Post-1980)
[10] = Species/Cell Type: Drosophila melanogaster, Assay Type: Sex-linked recessive lethal gene mutation, Assay Code: SRLT, Evaluation Type: Evaluation A (Pre-1980)
[11] = Species/Cell Type: Salmonella typhimurium, Assay Type: Forward and reverse gene mutation, host-mediated assay, Assay Code: HMA-, Evaluation Type: Evaluation A (Pre-1980)
[12] = Species/Cell Type: Human diploid fibroblasts, Assay Type: Unscheduled DNA synthesis (UDS) in vitro, DNA effects, Assay Code: UDH+, Evaluation Type: Evaluation A (Pre-1980)
[13] = Species/Cell Type: Salmonella typhimurium (one or more of the five standard strains: TA98, TA100, TA1535, TA1537, and TA1538), Assay Type: Histidine reverse gene mutation, Ames assay, Assay Code: SAL+*, Activation: With metabolic activation, Evaluation Type: Evaluation A (Pre-1980)
[14] = Species/Cell Type: Drosophila melanogaster, Assay Type: Sex-linked recessive lethal gene mutation, Assay Code: SRL+, Evaluation Type: Evaluation A (Pre-1980)
[15] = Species/Cell Type: Bacillus subtilis (H17 vs M45), Assay Type: Rec-assay, spot test, DNA effects (bacterial DNA repair), Assay Code: REWT, Evaluation Type: Evaluation A (Pre-1980)
[16] = Species/Cell Type: Bacillus subtilis (H17 vs M45T), Assay Type: Rec-assay, spot test, DNA effects (bacterial DNA repair), Assay Code: REXT, Evaluation Type: Evaluation A (Pre-1980)

ClCc1cccnc1
mutagenic call (Species/Cell Type: Fischer rat embryo (RLV/1706) cells, Assay Type: Cell transformation, viral enhanced, Assay Code: CTR+, Evaluation Type: Evaluation A (Pre-1980)): active; positive
mutagenic call (Species/Cell Type: Mouse (BALB/c-3T3) cells, Assay Type: Cell transformation, Assay Code: CTB-, Evaluation Type: Evaluation A (Pre-1980)): inactive; negative
call [1]: active; positive

Cc1cc(=O)oc2ccccc12
mutagenic call (Species/Cell Type: Allium cepa, Assay Type: Chromosome aberrations, Assay Code: ALC+, Evaluation Type: Evaluation A (Pre-1980)): active; positive

CCCCCCN(N=O)C(N)=O
mutagenic call [2]: active; positive

Nc1ncc(/C=C/c2ccc([N+](=O)[O-])o2)nn1
mutagenic call [3]: inactive; negative
mutagenic call [4]: active; positive
mutagenic call (Species/Cell Type: Escherichia coli WP2 UVRA, Assay Type: Tryptophan reverse gene mutation, Assay Code: WPU+D, Dose Response: With dose response, Evaluation Type: Evaluation A (Pre-1980)): active; positive

NC(=O)N1c2ccccc2C=Cc2cc(O)ccc21
mutagenic call (Species/Cell Type: Human lymphocytes, Assay Type: Sister-chromatid exchange (SCE) in vitro, Assay Code: SCLT, Evaluation Type: Evaluation B (Post-1980)): no conclusion
mutagenic call (Species/Cell Type: Human, Assay Type: Sister-chromatid exchange (SCE) in vitro, Assay Code: SC1T, Evaluation Type: Evaluation B (Post-1980)): no conclusion

CCN(CC)Cc1cc(Br)ccc1OCC(=O)N/N=C\c1ccc(OC)cc1
mutagenic call (Species/Cell Type: Saccharomyces cerevisiae, Assay Type: Reverse gene mutation, Assay Code: YERT, Evaluation Type: Evaluation A (Pre-1980)): no conclusion

CCNCCNc1ccc(CO)c2sc3cc(Cl)ccc3c(=O)c12
mutagenic call (Species/Cell Type: Mouse lymphoma (L5178Y) cells, Assay Type: Forward gene mutation at the thymidine kinase (TK) locus, chromosome aberrations, Assay Code: L51+, Evaluation Type: Evaluation A (Pre-1980)): active; positive

OCC1COCO1 (centres undefined)
mutagenic call [5]: inactive; negative

O=C1C(=O)c2ccccc2-c2ccccc21
mutagenic call [6]: inactive; negative

O[C@@H]1C=Cc2ccc3cc4ccccc4cc3c2[C@H]1O
mutagenic call [7]: inactive; negative
mutagenic call (Species/Cell Type: Nonhuman, Assay Type: Sister-chromatid exchange (SCE) in vitro, Assay Code: SC2+D, Dose Response: With dose response, Evaluation Type: Evaluation B (Post-1980)): active; positive
mutagenic call [8]: no conclusion

NS(=O)(=O)c1ccc(C(=O)O)cc1
mutagenic call [9]: no conclusion

CCc1ccc(O)c(O)c1
mutagenic call [6]: inactive; negative

CC(Br)Br
mutagenic call [10]: no conclusion
mutagenic call (Species/Cell Type: Escherichia coli polA (W3119 vs P3478), Assay Type: Rec-assay, DNA effects (bacterial DNA repair), Assay Code: RE1+, Evaluation Type: Evaluation A (Pre-1980)): active; positive
mutagenic call (Species/Cell Type: Tradescantia species, Assay Type: Gene mutation, Assay Code: TRM-, Evaluation Type: Evaluation A (Pre-1980)): inactive; negative

Cc1c2c(c(CO)c3ccccc13)[C@H](O)[C@@H](O)c1ccccc1-2
mutagenic call [7]: inactive; negative
call (Species/Cell Type: Nonhuman, Assay Code: CCGT, Evaluation Type: Evaluation A (Pre-1980)): no conclusion

O=[N+]([O-])c1nccn1CC(O)CF (centres undefined)
mutagenic call [2]: active; positive

O=C1CCC(=O)O1
mutagenic call (Species/Cell Type: Escherichia coli polA (W3110 vs P3478), Assay Type: Rec-assay, DNA effects (bacterial DNA repair), Assay Code: RE2-, Evaluation Type: Evaluation A (Pre-1980)): inactive; negative
mutagenic call (Species/Cell Type: Escherichia coli polA (W3119 vs P3478), Assay Type: Rec-assay, DNA effects (bacterial DNA repair), Assay Code: RE1-, Evaluation Type: Evaluation A (Pre-1980)): inactive; negative
mutagenic call (Species/Cell Type: Mouse lymphoma (L5178Y) cells, Assay Type: Forward gene mutation at the thymidine kinase (TK) locus, chromosome aberrations, Assay Code: L51-, Evaluation Type: Evaluation A (Pre-1980)): inactive; negative
call [1]: active; positive
mutagenic call (Species/Cell Type: Saccharomyces cerevisiae, Assay Type: Mitotic recombination or gene conversion, Assay Code: YEH-, Evaluation Type: Evaluation A (Pre-1980)): inactive; negative
mutagenic call (Species/Cell Type: Salmonella typhimurium (one or more of the five standard strains: TA98, TA100, TA1535, TA1537, and TA1538), Assay Type: Histidine reverse gene mutation, Ames assay, Assay Code: SAL-, Evaluation Type: Evaluation A (Pre-1980)): inactive; negative
mutagenic call [11]: inactive; negative
mutagenic call (Species/Cell Type: Syrian hamster embryo (SHE) cells, Assay Type: Cell transformation, clonal assay, Assay Code: CTC+, Evaluation Type: Evaluation A (Pre-1980)): active; positive

CC(N)=S=O
mutagenic call (Species/Cell Type: Mammalian polychromatic erythrocytes, Assay Type: Micronucleus test, chromosome aberrations, Assay Code: MNT+U, Dose Response: Unconfirmed positive response, Evaluation Type: Evaluation B (Post-1980)): active; positive

CCCCCCCCCCCCCC(=O)ON(C(C)=O)c1ccc2c(c1)Cc1ccccc1-2
mutagenic call [12]: active; positive
mutagenic call [8]: no conclusion

CCC1(O)CC(OC2CC(N)C(OC3CC(O)C(OC4CCC(=O)C(C)O4)C(C)O3)C(C)O2)c2c(cc3c(c2O)C(=O)c2c(O)cccc2C3=O)C1C(=O)OC (centres undefined)
mutagenic call [13]: active; positive

CC(=O)Nc1ccc(NC(C)=O)c2c1C(=O)c1ccccc1C2=O
mutagenic call [13]: active; positive

CC(C)(C)NCC(O)COc1cccc2c1CCC(=O)N2 (centres undefined)
mutagenic call [3]: inactive; negative
mutagenic call (Species/Cell Type: Escherichia coli WP2, Assay Type: Tryptophan reverse gene mutation, Assay Code: WP2-, Evaluation Type: Evaluation A (Pre-1980)): inactive; negative
mutagenic call (Species/Cell Type: Escherichia coli WP2 UVRA, Assay Type: Tryptophan reverse gene mutation, Assay Code: WPU-, Evaluation Type: Evaluation A (Pre-1980)): inactive; negative
mutagenic call [11]: inactive; negative

Cc1cc(N=Nc2ccc(S(=O)(=O)O)cc2)c(N)cc1N
mutagenic call [13]: active; positive

O=[N+]([O-])c1ccc(/C=C/c2cccc(CO)n2)o1
mutagenic call [12]: active; positive

NC(=O)N/N=C(/CCN1CCCCC1)c1ccc([N+](=O)[O-])o1
mutagenic call [4]: active; positive
mutagenic call (Species/Cell Type: Escherichia coli WP2 UVRA, Assay Type: Tryptophan reverse gene mutation, Assay Code: WPU+, Evaluation Type: Evaluation A (Pre-1980)): active; positive

CN(C)c1ccc(/C=C/c2ccccc2)cc1
mutagenic call [10]: no conclusion

Oc1cc(Cl)ccc1Oc1ccc(Cl)cc1Cl
mutagenic call [9]: no conclusion
mutagenic call (Species/Cell Type: Mouse, Sex: Female, Assay Type: Spot test, gene mutation, Assay Code: MST-, Evaluation Type: Evaluation A (Pre-1980)): inactive; negative
mutagenic call (Species/Cell Type: Saccharomyces cerevisiae, Assay Type: Forward gene mutation, Assay Code: YEF+, Evaluation Type: Evaluation A (Pre-1980)): active; positive
mutagenic call (Species/Cell Type: Saccharomyces cerevisiae, Assay Type: Mitotic recombination or gene conversion, Assay Code: YEC-, Evaluation Type: Evaluation A (Pre-1980)): inactive; negative
mutagenic call (Species/Cell Type: Saccharomyces cerevisiae, Assay Type: Mitotic recombination or gene conversion, Assay Code: YEH+, Evaluation Type: Evaluation A (Pre-1980)): active; positive

C=C/C=C/Cl
mutagenic call [14]: active; positive

CC(CCC(C)OS(C)(=O)=O)OS(C)(=O)=O (centres undefined)
mutagenic call [14]: active; positive

O=c1[nH]c(=O)[nH]c(=O)[nH]1
mutagenic call (Species/Cell Type: Nonhuman, Assay Type: Sister-chromatid exchange (SCE) in vitro, Assay Code: SC2-, Evaluation Type: Evaluation B (Post-1980)): inactive; negative

Cc1c(C(=O)O)c(O)cc2c1C(=O)c1c(O)c([C@@H]3O[C@@H](CO)[C@H](O)[C@@H](O)[C@H]3O)c(O)c(O)c1C2=O
mutagenic call [15]: no conclusion
mutagenic call [16]: no conclusion

CC(C)(C)Cl
mutagenic call (Species/Cell Type: Escherichia coli polA (W3119 vs P3478), Assay Type: Rec-assay, DNA effects (bacterial DNA repair), Assay Code: RE1T, Evaluation Type: Evaluation A (Pre-1980)): no conclusion

CCN(CC)c1ccc2c(-c3ccc(S(=O)(=O)O)cc3S(=O)(=O)[O-])c3ccc(=[N+](CC)CC)cc-3oc2c1
mutagenic call [15]: no conclusion
mutagenic call [16]: no conclusion

O=NN(CCCl)C(=O)NCCCCCCNC(=O)N(CCCl)N=O
mutagenic call [14]: active; positive
mutagenic call (Species/Cell Type: Saccharomyces cerevisiae, Assay Type: Mitotic recombination or gene conversion, Assay Code: YEC+, Evaluation Type: Evaluation A (Pre-1980)): active; positive

COc1ccc(-c2oc3c(OC)c(OC)c(OC)cc3c(=O)c2OC)cc1
mutagenic call (Species/Cell Type: Bacillus subtilis (H17 vs M45), Assay Type: Rec-assay, spot test, DNA effects (bacterial DNA repair), Assay Code: REW+, Evaluation Type: Evaluation A (Pre-1980)): active; positive

O=C1OC(O)C(C(Cl)Cl)=C1Cl (centres undefined)
mutagenic call [5]: inactive; negative
